# In article PMC10747729, “Permeation Protection by Waterproofing Mucosal Membranes” (Pharmaceutics, 2023):
# Tests used:
# [1] = In vitro release/permeation assay through porcine skin, Franz diffusion cells; type: in vitro ADME; conditions: infinite dose 300 µL of 1% solution; for Papp at 4 h, 1 %: pig, read-out: Permeability Coef. Kp (converted)
# Experimental: (§1) The in vitro release test was conducted with artificial membrane (Whatman® Nuclepore™) and porcine sublingual mucosa as well as pig skin membrane as a reference. Biological membranes (mucosa and skin) were dermatomed at 500 ± 50 µm of thickness. Membranes were placed in vertical Franz diffusion cells and conditioned in a thermostatic bath at 43 °C to assure a membrane surface temperature of 32 ± 1 °C as in the previous TMWL study. The receptor solution used was the same PBS:EtOH (1:1) as before. Data on the TWML, temperature, and humidity of the membrane were obtained before initiating the test with the Tewameter TM300 (Courage-Khazaka, Cologne, Germany).
# (§2) On the modified mucosas, a volume of 70 µL of each formulation was applied and after one hour an infinite dose (300 µL) of tested solution was applied. […] Receptor fluid was collected at different times (30 min, 1 h, 2 h, 4 h) and the same volume was immediately replaced with fresh fluid. The aliquots were appropriately diluted and filtered (0.45 µm, Cameo, Sigma-Aldrich, St. Louis, MO, USA) before their analysis with HPLC/DAD.
# (§3) The release of the active substances was determined with the cumulative amount released (Qn, μg/cm^2), which represents the cumulative amount of the active substances quantified in the receptor fluid per area of the sample [34]. The equation is as follows (1):(1) Qn=Cn×Vc+∑i=1n−1(Ci×Vs)/A, where Qn is the cumulative amount of active substance released at time n (μg/cm^2); Cn is the concentration of active substance in the collected sample (μg/mL); Vc is the volume of the Franz diffusion cell (3 mL); ∑i=1n−1 Ci is the sum of the active substance concentrations (µg/mL) determined in sampling intervals 1 to n − 1; Vs is the volume of the collected sample; and A is the surface area of the applied membrane (1.86 cm^2).
# (§4) The best absorption model to describe the release of active substances was obtained from the graphic representation of data release (values/time), as described by Mallandrich et al.. All data collected were processed over time to obtain the best fit equation for each membrane using the nonlinear regression software STATGRAPHICS® plus 5 (Statgraphics Technologies, Inc., The Plains, VA, USA). Selection of the best equation was made in accordance with the highest correlation coefficient corrected for the number of degrees of freedom (R^2). Following that analysis, the parameters of the flow (J, […]), the permeability coefficient (Kp, cm/h), the delay time (Tl, h), the maximum concentration (Cmax, µg/mL), the maximum time (tmax, h), and the area under the curve (AUC) were calculated for each membrane.
# (§5) The software was OpenLab (version 2.2.0). […] Methanol (Merck, Darmstadt, Germany) was used as an extraction solvent for all active substances. All analytical procedures were validated following the guidelines developed by the International Conference on Harmonization (ICH). The calibration curve, limit of quantification (LoQ), and limit of detection (LoD) were obtained and are detailed in Table 5.
# [2] = In vitro release/permeation assay through porcine sublingual mucosa, unmodified or modified with formulations, Franz diffusion cells; type: in vitro ADME; conditions: for permeability (in words): across skin, mucosa and modified mucosa; for decrease in the permeability coefficient promoted by F16: mucosa modified with F16 vs unmodified mucosa; for Papp at 4 h, 1 %: pig, read-out: Permeability Coef. Kp (converted); for area under the curve, flux and permeability through unmodified mucosa compared to skin: unmodified mucosa vs porcine skin
# Experimental: as §1, §2, §3, §4, §5
# [3] = cited from earlier work
# [4] = cited from earlier work; remark: listed apart in the source
Molecule,Flux. J [1],Lag Time. TL [1],"Papp at 4 h, 1 % [1]",Flux. J ([2]; MUCOSA F3),Lag Time. TL ([2]; MUCOSA F3),Flux. J ([2]; MUCOSA F6),Lag Time. TL ([2]; MUCOSA F6),Flux. J ([2]; MUCOSA F16),Lag Time. TL ([2]; MUCOSA F16),Flux. J ([2]; MUCOSA unmodified),Lag Time. TL ([2]; MUCOSA unmodified),permeability (in words) [2],decrease in the permeability coefficient promoted by F16 [2],"Papp at 4 h, 1 % ([2]; MUCOSA F3)","Papp at 4 h, 1 % ([2]; MUCOSA F6)","Papp at 4 h, 1 % ([2]; MUCOSA F16)","Papp at 4 h, 1 % ([2]; MUCOSA unmodified)","area under the curve, flux and permeability through unmodified mucosa compared to skin [2]",pKa [3],LogP (pH7.4) [4]
"Cn1c(=O)c2c(ncn2C)n(C)c1=O [CAF, Caffeine]",75.09 ± 51.32 µg/cm^2/h,0.65 ± 0.24 h,1.68 ×10⁻⁶ cm/s,102.73 ± 30.73 µg/cm^2/h,0.10 ± 0.08 h,611.08 ± 85.12 µg/cm^2/h,0.28 ± 0.08 h,78.93 ± 11.05 µg/cm^2/h,-0.18 ± 0.03 h,428.40 ± 81.41 µg/cm^2/h,0.04 ± 0.34 h,high permeability,approximately 80%,2.3 ×10⁻⁶ cm/s,13.7 ×10⁻⁶ cm/s,1.77 ×10⁻⁶ cm/s,9.6 ×10⁻⁶ cm/s,approximately four times higher,,
"C[C@@H]1C[C@H]2[C@@H]3CCC4=CC(=O)C=C[C@]4(C)[C@@]3(F)[C@@H](O)C[C@]2(C)[C@@]1(O)C(=O)CO [DEX, Dexamethasone]",5.84 ± 3.46 µg/cm^2/h,0.62 ± 0.16 h,,330.43 ± 11.68 µg/cm^2/h,0.36 ± 0.04 h,289.38 ± 99.51 µg/cm^2/h,0.64 ± 0.36 h,68.26 ± 1.67 µg/cm^2/h,-0.11 ± 0.27 h,335.25 ± 61.25 µg/cm^2/h,0.31 ± 0.13 h,,approximately 80%,,,,,,12.1,
"CC(C)Cc1ccc(C(C)C(=O)O)cc1 (stereo not shown) [IBU, Ibuprofen]",24.79 ± 2.75 µg/cm^2/h,-0.24 ± 0.19 h,0.569 ×10⁻⁶ cm/s,498.25 ± 49.45 µg/cm^2/h,0.23 ± 0.01 h,451.01 ± 98.04 µg/cm^2/h,0.35 ± 0.06 h,74.41 ± 0.16 µg/cm^2/h,0.15 ± 0.003 h,346.91± 5.87 µg/cm^2/h,0.17 ± 0.07 h,intermediate permeability,approximately 80%,11.4 ×10⁻⁶ cm/s,10.4 ×10⁻⁶ cm/s,1.71 ×10⁻⁶ cm/s,7.96 ×10⁻⁶ cm/s,14 times higher,,
Ivermectin,3.13 ± 0.86 µg/cm^2/h,0.59 ± 0.28 h,,87.23 ± 21.83 µg/cm^2/h,0.28 ± 0.02 h,144.86 ± 29.93 µg/cm^2/h,0.32 ± 0.10 h,41.70 ± 5.67 µg/cm^2/h,-0.09 ± 0.46 h,63.75 ± 1.57 µg/cm^2/h,0.24 ± 0.001 h,,approximately 40%,,,,,,12.47,5.83
